Reference: patent US8802702B2, “Compounds for reducing drug resistance and uses thereof” (The General Hospital Corporation, priority 2009, dated 2014)
Like-named read-outs stand apart in the source and are kept apart here.

Key:
SKOV-3TR cells = test: Reversal of drug resistance, cytotoxicity (MTT) assay in SKOV-3TR; type: cell-based; settings: for IC50: Homo sapiens, SKOV3TR
Experimental: FIGS. 1 (a-b) are graphs that depict the effects of NSC23925 on drug sensitivity in ovarian cancer cells; 1(a) depicts the effects of NSC23925 on sensitive (SKOV-3) and resistant (SKOV-3TR) cells; 1(b) depicts the effects of NSC23925 on sensitive (OVCAR8) and resistant (OVCAR8TR) cells. […] The relative sensitivity of each line to paclitaxel was determined by MTT assay, as described below in the Examples section, 6 days post treatment. […]
Drug cytotoxicity was assessed in vitro using the MTT assay. SKOV-3 and SKOV-3TR cells were used herein. Briefly, 2×10^3 cells per well were plated in 96-well plates in culture medium (RPMI 1640 supplemented with 10% fetal bovine serum and penicillin/streptomycin) containing increasing concentrations of drug. […] The resulting formazan product was dissolved with acid-isopropanol and the absorbance at a wavelength of 490 nm (A490) was read on a SPECTRAmax® Microplate Spectrophotometer (Molecular Devices, Sunnyvale, Calif.). The absorbance values were normalized by assigning the value of the control line in the medium without drug to 1.0 and the value of the no cell control to 0. Experiments were performed in triplicate.

[1] = system: MCF-7 MX cells (express BCRP, not Pgp1); test: Reversal of drug resistance in non-Pgp1 MDR cells expressing BCRP; type: cell-based, human
Text: Dr. Efstathios Gonos (Institute of Biological Research & Biotechnology, Athens, Greece) provided the doxorubicin resistant U-2OS R2 (referred in the text below as U-2OSDR), KHOS R2 cell lines. Dr. Stephen. Howell (The University of California Medical Center, San Diego) provided the cisplatin-resistant ovarian cancer IGROV1cp and 2008 cp70 cell lines. Dr. Erasmus Schneider (Wadsworth Center, Albany) provided the mitoxantrane resistant breast cancer MCF-7/MX cell line. Dr. Katia Scotlandi (Institute Orthopedics Rizzoli, Italy) provided ET-743 resistant TC-ET 6 nM and TC-ET 12 nM cell lines.

[2] = system: OVCAR8 and OVCAR8TR cells; test: Cytotoxicity of NSC23925 alone (MTT assay), OVCAR8/OVCAR8TR; type: cell-based, human
Experimental: (§1) Cells were treated with the NSC23925 in RPMI1640 complete media at the indicated concentrations. The relative sensitivity of each line to NSC23925 was determined by MTT assay. A: Nonspecific toxicity of NSC23925 on SKOV3 vs SKOV-3TR. B: Nonspecific toxicity of NSC23925 on OVCAR8 vs OVCAR8TR. Drug cytotoxicity was assessed in vitro using the MTT assay. SKOV-3 and SKOV-3TR cells were used herein. Briefly, 2×10^3 cells per well were plated in 96-well plates in culture medium (RPMI 1640 supplemented with 10% fetal bovine serum and penicillin/streptomycin) containing increasing concentrations of drug. After 7 days of culture, 10 μl MTT (5 mg/ml in PBS, obtained from Sigma) were added to each well and the plates were incubated for 4 h. The resulting formazan product was dissolved with acid-isopropanol and the absorbance at a wavelength of 490 nm (A490) was read on a SPECTRAmax® Microplate Spectrophotometer (Molecular Devices, Sunnyvale, Calif.). The absorbance values were normalized by assigning the value of the control line in the medium without drug to 1.0 and the value of the no cell control to 0. Experiments were performed in triplicate.

KHOSR2 cells = test: Reversal of drug resistance, cytotoxicity assay in KHOSR2; type: cell-based, human; settings: for IC50: Homo sapiens
[3] = system: SKOV-3 and SKOV-3TR cells; test: Cytotoxicity of NSC23925 alone (MTT assay), SKOV-3/SKOV-3TR; type: cell-based, human
Experimental: as §1, with “Drug cytotoxicity was determined by MTT assay. […] Cells” for “Cells”, “After 7 days of culture, 10 μl MTT (5 mg/ml in PBS, obtained from Sigma) were added to each well and the plates were incubated for 4 h.” left out

[4] = Doxorubicin, add NSC23925 0.1 μM
[5] = Doxorubicin, add NSC23925 0.5 μM
[6] = Paclitaxel, add NSC23925 0.1 μM
[7] = Paclitaxel, add NSC23925 0.5 μM
[8] = <5-10 μM NSC23925 alone, cells lack Pgp1

COc1ccc(-c2cc(C(O)C3CCCCN3)c3ccccc3n2)cc1 (centres unmarked) [NSC23925, (2-(4-methoxyphenyl)quinolin-4-yl)(piperidin-2-yl)methanol]
fold-reversal of drug resistance, SKOV-3TR (SKOV-3TR cells; [4]): (1.4) fold | fold-reversal of drug resistance, SKOV-3TR (SKOV-3TR cells; [5]): (3.3) fold | fold-reversal of drug resistance, SKOV-3TR (SKOV-3TR cells; Doxorubicin, add NSC23925 1 μM): (11.5) fold | fold-reversal of drug resistance, SKOV-3TR (SKOV-3TR cells; ET-743, add NSC23925 0.1 μM): (0.8) fold | fold-reversal of drug resistance, SKOV-3TR (SKOV-3TR cells; ET-743, add NSC23925 0.5 μM): (1) fold | fold-reversal of drug resistance, SKOV-3TR (SKOV-3TR cells; ET-743, add NSC23925 1 μM): (1) fold | IC50 (SKOV-3TR cells; Doxorubicin, add NSC23925 0.1 μM, read-out: SKOV-3TR IC50 of Doxorubicin): 16500 ± 210 nM | IC50 (SKOV-3TR cells; Doxorubicin, add NSC23925 0.5 μM, read-out: SKOV-3TR IC50 of Doxorubicin): 6780 ± 160 nM | IC50 (SKOV-3TR cells; Doxorubicin, add NSC23925 1 μM, read-out: SKOV-3TR IC50 of Doxorubicin): 1940 ± 220 nM | IC50 (SKOV-3TR cells; ET-743, add NSC23925 0.1 μM, read-out: SKOV-3TR IC50 of ET-743): 5 ± 2 nM | IC50 (SKOV-3TR cells; ET-743, add NSC23925 0.5 μM, read-out: SKOV-3TR IC50 of ET-743): 4 ± 1 nM | IC50 (SKOV-3TR cells; ET-743, add NSC23925 1 μM, read-out: SKOV-3TR IC50 of ET-743): 4 ± 1 nM | IC50 (SKOV-3TR cells; PM00104, add NSC23925 0.1 μM, read-out: SKOV-3TR IC50 of PM00104): 5 ± 2 nM | IC50 (SKOV-3TR cells; PM00104, add NSC23925 0.5 μM, read-out: SKOV-3TR IC50 of PM00104): 7 ± 1 nM | IC50 (SKOV-3TR cells; PM00104, add NSC23925 1 μM, read-out: SKOV-3TR IC50 of PM00104): 5 ± 2 nM | IC50 (SKOV-3TR cells; Paclitaxel, add NSC23925 0.1 μM, read-out: SKOV-3TR IC50 of Paclitaxel): 302 ± 56 nM | IC50 (SKOV-3TR cells; Paclitaxel, add NSC23925 0.5 μM, read-out: SKOV-3TR IC50 of Paclitaxel): 132 ± 47 nM | IC50 (SKOV-3TR cells; Paclitaxel, add NSC23925 1 μM, read-out: SKOV-3TR IC50 of Paclitaxel): 37 ± 28 nM | fold-reversal of drug resistance, SKOV-3TR (SKOV-3TR cells; PM00104, add NSC23925 0.1 μM): (1.2) fold | fold-reversal of drug resistance, SKOV-3TR (SKOV-3TR cells; PM00104, add NSC23925 0.5 μM): (0.9^ fold | fold-reversal of drug resistance, SKOV-3TR (SKOV-3TR cells; PM00104, add NSC23925 1 μM): (1.2) fold | fold-reversal of drug resistance, SKOV-3TR (SKOV-3TR cells; [6]): (1.03) fold | fold-reversal of drug resistance, SKOV-3TR (SKOV-3TR cells; [7]): (2.4) fold | fold-reversal of drug resistance, SKOV-3TR (SKOV-3TR cells; Paclitaxel, add NSC23925 1 μM): (8.4) fold | Reversal of drug resistance in MCF-7 MX cells [1]: unable to reverse drug resistance | Cytotoxic effect of NSC23925 alone in parental OVCAR8 [2, 8]: no cytotoxic effect | IC50 ([2]; Homo sapiens, OVCAR-8, OVCAR8/OVCAR8TR, single agent, read-out: IC50 for NSC23925 (proliferation)): 25000 nM | fold-reversal of drug resistance, KHOSR2 (KHOSR2 cells; [4]): (1.4) fold | fold-reversal of drug resistance, KHOSR2 (KHOSR2 cells; [5]): (8.6) fold | fold-reversal of drug resistance, KHOSR2 (KHOSR2 cells; Doxorubicin, add NSC23925 1 μM): (35) fold | fold-reversal of drug resistance, KHOSR2 (KHOSR2 cells; ET-743, add NSC23925 0.1 μM): (1.2) fold | fold-reversal of drug resistance, KHOSR2 (KHOSR2 cells; ET-743, add NSC23925 0.5 μM): (2.1) fold | fold-reversal of drug resistance, KHOSR2 (KHOSR2 cells; ET-743, add NSC23925 1 μM): (3.2) fold | IC50 (KHOSR2 cells; Doxorubicin, add NSC23925 0.1 μM, read-out: KHOSR2 IC50 of Doxorubicin): 7360 ± 336 nM | IC50 (KHOSR2 cells; Doxorubicin, add NSC23925 0.5 μM, read-out: KHOSR2 IC50 of Doxorubicin): 1200 ± 461 nM | IC50 (KHOSR2 cells; Doxorubicin, add NSC23925 1 μM, read-out: KHOSR2 IC50 of Doxorubicin): 292 ± 210 nM | IC50 (KHOSR2 cells; ET-743, add NSC23925 0.1 μM, read-out: KHOSR2 IC50 of ET-743): 145 ± 45 nM | IC50 (KHOSR2 cells; ET-743, add NSC23925 0.5 μM, read-out: KHOSR2 IC50 of ET-743): 83 ± 39 nM | IC50 (KHOSR2 cells; ET-743, add NSC23925 1 μM, read-out: KHOSR2 IC50 of ET-743): 54 ± 34 nM | IC50 (KHOSR2 cells; PM00104, add NSC23925 0.1 μM, read-out: KHOSR2 IC50 of PM00104): 113 ± 38 nM | IC50 (KHOSR2 cells; PM00104, add NSC23925 0.5 μM, read-out: KHOSR2 IC50 of PM00104): 26 ± 14 nM | IC50 (KHOSR2 cells; PM00104, add NSC23925 1 μM, read-out: KHOSR2 IC50 of PM00104): 8 ± 16 nM | IC50 (KHOSR2 cells; Paclitaxel, add NSC23925 0.1 μM, read-out: KHOSR2 IC50 of Paclitaxel): 160 ± 16 nM | IC50 (KHOSR2 cells; Paclitaxel, add NSC23925 0.5 μM, read-out: KHOSR2 IC50 of Paclitaxel): 120 ± 32 nM | IC50 (KHOSR2 cells; Paclitaxel, add NSC23925 1 μM, read-out: KHOSR2 IC50 of Paclitaxel): 60 ± 20 nM | fold-reversal of drug resistance, KHOSR2 (KHOSR2 cells; PM00104, add NSC23925 0.1 μM): (1.3) fold | fold-reversal of drug resistance, KHOSR2 (KHOSR2 cells; PM00104, add NSC23925 0.5 μM): (5.5) fold | fold-reversal of drug resistance, KHOSR2 (KHOSR2 cells; PM00104, add NSC23925 1 μM): (17.9) fold | fold-reversal of drug resistance, KHOSR2 (KHOSR2 cells; [6]): (1.3) fold | fold-reversal of drug resistance, KHOSR2 (KHOSR2 cells; [7]): (1.8) fold | fold-reversal of drug resistance, KHOSR2 (KHOSR2 cells; Paclitaxel, add NSC23925 1 μM): (3.5) fold | Cytotoxic effect of NSC23925 alone in parental SKOV-3 [3, 8]: no cytotoxic effect | IC50 ([3]; Homo sapiens, SKOV-3/SKOV-3TR, single agent, read-out: IC50 for NSC23925 (proliferation)): 8000 nM | Effect of verapamil on the cytotoxic effect of NSC23925 ([3]; Pgp1-overexpressing SKOV-3TR cells, 72 hours, MTT): did not influence the cytotoxic effect | Doses at which NSC23925 by itself is noncytotoxic ([3]; both sensitive and resistant cell lines): up to 10 μM | Pgp1 transport substrate status ([3]; concluded from matched cell line IC50s and verapamil co-treatment): not a substrate of Pgp1
